Our source for the MIC values is US20260274892A1, “MACROCYCLIC BROAD SPECTRUM ANTIBIOTICS” (RQx Pharmaceuticals, Inc., priority 2017, published 2026).

The MIC is the lowest concentration found to suppress growth.

Assay [1] concerns Methicillin Resistant Staphylococcus aureus strain USA 200. Nature of the assay: Minimum inhibitory concentration (MIC), CLSI broth micro-dilution, S. aureus. It is filed as cell-based. The following applies: Staphylococcus aureus, MRSA / USA200; Table 6; MRSA USA 200; cation adjusted Mueller Hinton Broth + 0.002% Tween-80; 35° C., 22 hours. An outline of the steps: (§1)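 Antibacterial potency is measured as MIC by the CLSI broth dilution method. Bacteria at OD600 0.0005 in Tween-80-supplemented cation-adjusted Mueller Hinton broth face ten twofold compound dilutions for 22 h at 35° C.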
For orientation: In broth dilution the organism is exposed to a series of concentrations in liquid medium.

For assay [2], the system named is Escherichia coli ATCC 25922. The experiment in a line: Minimum inhibitory concentration (MIC), CLSI broth micro-dilution, E. coli. It is filed as cell-based. The settings on record: Escherichia coli, ATCC25922, 22 h, Table 6, cation adjusted Mueller Hinton Broth + 0.002% Tween-80, 35° C. An outline of the steps: as §1

The structures appear in SMILES notation.

With `Cc1nc(-c2ccc(C(C)(C)C)cc2)nc(Cl)c1C(=O)N[C@@H](CCN)C(=O)N(C)[C@@H]1C(=O)N[C@@H](C)C(=O)N[C@H](C(=O)NCC#N)Cc2ccc(OCCN)c(c2)-c2cc1ccc2OCCN` (racemic) [Compound 421, rac-(8S,11S,14S)-3,18-bis(2-aminoethoxy)-N-(cyanomethyl)-11-methyl-14-[methyl-[rac-(2S)-4-amino-2-[[2-(4-tert-butylphenyl)-4-chloro-6-methyl-pyrimidine-5-carbonyl]amino]butanoyl]amino]-10,13-dioxo-9,12-diazatricyclo[13.3.1.12,6]icosa-1(18),2(20),3,5,15(19),16-hexaene-8-carboxamide], the MIC in assay [1] stood at 0.031 µM; in assay [2], 0.19 µM.

On to `COc1nc(-c2ccc(C(C)(C)C)cc2)nc(C)c1C(=O)N[C@@H](CCN)C(=O)N(C)[C@@H]1C(=O)N[C@@H](C)C(=O)N[C@H](C(=O)NCC#N)Cc2ccc(OCCN)c(c2)-c2cc1ccc2OCCN` (racemic) [Compound 422, rac-(8S,11S,14S)-3,18-bis(2-aminoethoxy)-N-(cyanomethyl)-11-methyl-14-[methyl-[rac-(2S)-4-amino-2-[[2-(4-tert-butylphenyl)-4-methoxy-6-methyl-pyrimidine-5-carbonyl]amino]butanoyl]amino]-10,13-dioxo-9,12-diazatricyclo[13.3.1.12,6]icosa-1(18),2(20),3,5,15(19),16-hexaene-8-carboxamide], for which the results for the MIC in assay [1] and in assay [2] were 0.031 µM and 0.38 µM, respectively.

In the case of `Cc1nc(-c2ccc(C(C)(C)C)cc2)nc(O)c1C(=O)N[C@@H](CCN)C(=O)N(C)[C@@H]1C(=O)N[C@@H](C)C(=O)N[C@H](C(=O)NCC#N)Cc2ccc(OCCN)c(c2)-c2cc1ccc2OCCN` (racemic) [Compound 423, rac-(8S,11S,14S)-3,18-bis(2-aminoethoxy)-N-(cyanomethyl)-11-methyl-14-[methyl-[rac-(2S)-4-amino-2-[[2-(4-tert-butylphenyl)-4-hydroxy-6-methyl-pyrimidine-5-carbonyl]amino]butanoyl]amino]-10,13-dioxo-9,12-diazatricyclo[13.3.1.12,6]icosa-1(18),2(20),3,5,15(19),16-hexaene-8-carboxamide], the MIC in assay [1] stood at 0.13 µM; in assay [2], 2 µM.

Consider `Cc1nc(-c2ccc(C(C)(C)C)cc2)nc(N(C)C)c1C(=O)N[C@@H](CCN)C(=O)N(C)[C@@H]1C(=O)N[C@@H](C)C(=O)N[C@H](C(=O)NCC#N)Cc2ccc(OCCN)c(c2)-c2cc1ccc2OCCN` (racemic) [Compound 424, rac-(8S,11S,14S)-3,18-bis(2-aminoethoxy)-N-(cyanomethyl)-11-methyl-14-[methyl-[rac-(2S)-4-amino-2-[[2-(4-tert-butylphenyl)-4-(dimethylamino)-6-methyl-pyrimidine-5-carbonyl]amino]butanoyl]amino]-10,13-dioxo-9,12-diazatricyclo[13.3.1.12,6]icosa-1(18),2(20),3,5,15(19),16-hexaene-8-carboxamide], for which the MIC was found to be 0.023 µM in assay [1] and 0.19 µM in assay [2].

For `CNc1nc(-c2ccc(C(C)(C)C)cc2)nc(C)c1C(=O)N[C@@H](CCN)C(=O)N(C)[C@@H]1C(=O)N[C@@H](C)C(=O)N[C@H](C(=O)NCC#N)Cc2ccc(OCCN)c(c2)-c2cc1ccc2OCCN` (racemic) [Compound 425, rac-(8S,11S,14S)-3,18-bis(2-aminoethoxy)-N-(cyanomethyl)-11-methyl-14-[methyl-[rac-(2S)-4-amino-2-[[2-(4-tert-butylphenyl)-4-methyl-6-(methylamino)pyrimidine-5-carbonyl]amino]butanoyl]amino]-10,13-dioxo-9,12-diazatricyclo[13.3.1.12,6]icosa-1(18),2(20),3,5,15(19),16-hexaene-8-carboxamide], the MIC in assay [1] is 0.016 µM; in assay [2], 0.19 µM.

Consider `Cc1nc(-c2ccc(C(C)(C)C)cc2)nc(N)c1C(=O)N[C@@H](CCN)C(=O)N(C)[C@@H]1C(=O)N[C@@H](C)C(=O)N[C@H](C(=O)NCC#N)Cc2ccc(OCCN)c(c2)-c2cc1ccc2OCCN` (racemic) [Compound 426, rac-(8S,11S,14S)-3,18-bis(2-aminoethoxy)-N-(cyanomethyl)-11-methyl-14-[methyl-[rac-(2S)-4-amino-2-[[4-amino-2-(4-tert-butylphenyl)-6-methyl-pyrimidine-5-carbonyl]amino]butanoyl]amino]-10,13-dioxo-9,12-diazatricyclo[13.3.1.12,6]icosa-1(18),2(20),3,5,15(19),16-hexaene-8-carboxamide], for which the minimum inhibitory concentration (MIC) in assay [1] worked out at 0.023 µM; in assay [2], 0.12 µM.

With `C[C@@H]1NC(=O)[C@@H](N(C)C(=O)[C@H](CCN)NC(=O)c2c(N)nc(-c3ccc(C(C)(C)C)cc3)nc2N)c2ccc(OCCN)c(c2)-c2cc(ccc2OCCN)C[C@@H](C(=O)NCC#N)NC1=O` (racemic) [Compound 429, rac-(8S,11S,14S)-3,18-bis(2-aminoethoxy)-N-(cyanomethyl)-11-methyl-14-[methyl-[rac-(2S)-4-amino-2-[[4,6-diamino-2-(4-tert-butylphenyl)pyrimidine-5-carbonyl]amino]butanoyl]amino]-10,13-dioxo-9,12-diazatricyclo[13.3.1.12,6]icosa-1(18),2(20),3,5,15(19),16-hexaene-8-carboxamide], the figures for the MIC in assay [1] and in assay [2] were 0.023 µM and 1 µM, respectively.

For `Cc1nc(-c2ccc(CC(C)C)cc2)ccc1C(=O)N[C@@H](CCN)C(=O)N(C)[C@@H]1C(=O)N[C@@H](C)C(=O)N[C@H](C(=O)NCC#N)Cc2ccc(O)c(c2)-c2cc1ccc2O` (racemic) [Compound 430, rac-(8S,11S,14S)-N-(cyanomethyl)-3,18-dihydroxy-11-methyl-14-[methyl-[rac-(2S)-4-amino-2-[[6-(4-isobutylphenyl)-2-methyl-pyridine-3-carbonyl]amino]butanoyl]amino]-10,13-dioxo-9,12-diazatricyclo[13.3.1.12,6]icosa-1(18),2(20),3,5,15(19),16-hexaene-8-carboxamide], the minimal inhibitory concentration (MIC) in assay [1] came out at 0.15 µM; in assay [2] it was 4.7 µM.

Take `Cc1nc(-c2ccc(C(C)(C)C)cc2)ncc1C(=O)N[C@@H](CCN)C(=O)N(C)[C@@H]1C(=O)N[C@@H](C)C(=O)N[C@H](C(=O)NCC#N)Cc2ccc(O)c(c2)-c2cc1ccc2O` (racemic) [Compound 431, rac-(8S,11S,14S)-N-(cyanomethyl)-3,18-dihydroxy-11-methyl-14-[methyl-[rac-(2S)-4-amino-2-[[2-(4-tert-butylphenyl)-4-methyl-pyrimidine-5-carbonyl]amino]butanoyl]amino]-10,13-dioxo-9,12-diazatricyclo[13.3.1.12,6]icosa-1(18),2(20),3,5,15(19),16-hexaene-8-carboxamide]: the minimal inhibitory concentration (MIC) worked out at 0.18 µM in assay [1] and 3.9 µM in assay [2].

Take `CCCCCc1ccc(-c2ncc(C(=O)N[C@@H](CCN)C(=O)N(C)[C@@H]3C(=O)N[C@@H](C)C(=O)N[C@H](C(=O)NCC#N)Cc4ccc(O)c(c4)-c4cc3ccc4O)c(C)n2)cc1` (racemic) [Compound 432, rac-(8S,11S,14S)-N-(cyanomethyl)-3,18-dihydroxy-11-methyl-14-[methyl-[rac-(2S)-4-amino-2-[[4-methyl-2-(4-pentylphenyl)pyrimidine-5-carbonyl]amino]butanoyl]amino]-10,13-dioxo-9,12-diazatricyclo[13.3.1.12,6]icosa-1(18),2(20),3,5,15(19),16-hexaene-8-carboxamide]: the MIC in assay [1] worked out at 0.045 µM; in assay [2], 1.4 µM.

Consider `Cc1nc(-c2ccc(C(C)(C)C)cc2)nc(C)c1C(=O)N[C@@H](CCN)C(=O)N(C)[C@@H]1C(=O)N[C@@H](C)C(=O)N[C@H](C(=O)NCC#N)Cc2ccc(OCCCN)c(c2)-c2cc1ccc2OCCCN` (racemic) [Compound 434, rac-(8S,11S,14S)-3,18-bis(3-aminopropoxy)-N-(cyanomethyl)-11-methyl-14-[methyl-[rac-(2S)-4-amino-2-[[2-(4-tert-butylphenyl)-4,6-dimethyl-pyrimidine-5-carbonyl]amino]butanoyl]amino]-10,13-dioxo-9,12-diazatricyclo[13.3.1.12,6]icosa-1(18),2(20),3,5,15(19),16-hexaene-8-carboxamide], for which the figures for the minimal inhibitory concentration (MIC) in assay [1] and in assay [2] were 0.023 µM and 0.21 µM, respectively.

As to `CCCCCOc1ccc(-c2nc(C)c(C(=O)N[C@@H](CCN)C(=O)N(C)[C@@H]3C(=O)N[C@@H](C)C(=O)N[C@H](C(=O)NCC#N)Cc4ccc(OCCCN)c(c4)-c4cc3ccc4OCCCN)c(C)n2)cc1` (racemic) [Compound 435, rac-(8S,11S,14S)-3,18-bis(3-aminopropoxy)-N-(cyanomethyl)-11-methyl-14-[methyl-[rac-(2S)-4-amino-2-[[4,6-dimethyl-2-(4-pentoxyphenyl)pyrimidine-5-carbonyl]amino]butanoyl]amino]-10,13-dioxo-9,12-diazatricyclo[13.3.1.12,6]icosa-1(18),2(20),3,5,15(19),16-hexaene-8-carboxamide], the minimum inhibitory concentration (MIC) in assay [1] came out at 0.012 µM; in assay [2] it was 0.094 µM.

For the compound `Cc1nc(-c2ccc(C(C)(C)C)cc2)nc(C)c1C(=O)N[C@@H](CCN)C(=O)N(C)[C@@H]1C(=O)N[C@@H](C)C(=O)N[C@H](C(=O)NCC#N)Cc2ccc(OCCCCN)c(c2)-c2cc1ccc2OCCCCN` (racemic) [Compound 437, rac-(8S,11S,14S)-3,18-bis(4-aminobutoxy)-N-(cyanomethyl)-11-methyl-14-[methyl-[rac-(2S)-4-amino-2-[[2-(4-tert-butylphenyl)-4,6-dimethyl-pyrimidine-5-carbonyl]amino]butanoyl]amino]-10,13-dioxo-9,12-diazatricyclo[13.3.1.12,6]icosa-1(18),2(20),3,5,15(19),16-hexaene-8-carboxamide], the results for the minimal inhibitory concentration (MIC) in assay [1] and in assay [2] were 0.031 µM and 0.38 µM, respectively.
